Earlier results, collected in patent US11672781B2, “Metaxalone formulations” (PRANA BIOSCIENCES INC, priority 2018, dated 2023).

Settings: independent of pH across the physiological pH range found in the GI tract

Aqueous solubility: less than 50 ug/ml
Compound: Cc1cc(C)cc(OCC2CNC(=O)O2)c1 (stereo not shown) [metaxalone, 5-[(3,5-dimethylphenoxy)methyl]-2-oxazolidinone]
